These results are taken from paper PMC4912218, “Targeted metabolomics of Gammarus pulex following controlled exposures to selected pharmaceuticals in water” (The Science of the Total Environment, 2016).

One series in a line: in vivo. The following applies: in vivo. Here is the method:
(§1) From these toxicity profiles the NOAEL and the LOAEL were determined. Exposure experiments were performed in Pyrex® beakers, each containing 200 mL of AFW at 15 °C and ten adult animals (> 5 mg wet weight, ww). Live/dead animals were counted after 24 h by gently prodding and observing movement of appendages. The pharmaceutical concentrations tested were in the range of 0.01 to 250 mg L^− 1. […] Concentrations where 100, 50 and 0% of the animals died were repeated in duplicate or triplicate.

Details of series [1]: method as in Drugbank. The note with it: ref Drugbank, cited from earlier work.
A further series relates to Thamnocephalus platyurus. The note with it: ref Kim et al., 2009; cited from earlier work.
A further series has as its system Gammarus pulex. Nature of the series: in vivo. The following applies: 24 h, AFW, 15 °C; * = LC50 is above solubility. The protocol:
as §1

The structures appear in SMILES notation. Converted amounts (≈) assume the structure as drawn. Structures can show the parent of a compound that is named as a salt. Where two headings read alike, the source gives them in different places.

Regarding `CN(C)CCC=C1c2ccccc2CCc2ccccc21` [Amitriptyline], in “in vivo”, the LC50 at 24 h was 41.8 µg/mL (≈ 150 µM).
In the case of `CC(C)(Oc1ccc(CCNC(=O)c2ccc(Cl)cc2)cc1)C(=O)O` [Bezafibrate], the LC50 at 24 h in the series “in vivo” is > 1 µg/mL. For the same molecule, the Water solubility result in series [1] is “Insoluble”.
Turning to `NC(=O)N1c2ccccc2C=Cc2ccccc21` [Carbamazepine], the LC50 at 24 h in the series “in vivo” was > 112 µg/mL. Also, in the series on Thamnocephalus platyurus, the “24 h- LC50 T. platyurus” value was >100 mg/L.
Turning to `CC(C)(Oc1ccc(Cl)cc1)C(=O)O` [Clofibric acid], in “in vivo”, the LC50 at 24 h was > 250 µg/mL. For the same molecule, the Water solubility in series [1] is 582.5 mg/L.
On to `O=C(O)Cc1ccccc1Nc1c(Cl)cccc1Cl` [Diclofenac, Sodium diclofenac], for which, in series [1], the Water solubility is 50000 mg/L.
For `CC(C(=O)O)c1ccc(-c2ccccc2)c(F)c1` (stereo not shown) [Flurbiprofen], in “in vivo” (Gammarus pulex), the median lethal concentration (LC50) at 24 h was > 8 µg/mL.
Molecule `Cc1ccc(C)c(OCCCC(C)(C)C(=O)O)c1` [Gemfibrozil] showed a 50% lethal concentration (LC50) at 24 h in “in vivo” of 9.84 µg/mL (≈ 39.3 µM). The Water solubility in series [1] is <1000 mg/L.
As to `CC(C)Cc1ccc(C(C)C(=O)O)cc1` (stereo not shown) [Ibuprofen], the LC50 at 24 h in the series “in vivo” came out at 44 µg/mL (≈ 213 µM). For the same molecule, in series [1], the Water solubility is 100000 mg/L.
Molecule `CN(C)CCCN1c2ccccc2CCc2ccccc21` [Imipramine] yielded an LC50 at 24 h in the series “in vivo” of 3.85 µg/mL (≈ 13.7 µM). In addition, the Water solubility in series [1] was 50000 mg/L.
Regarding `COc1ccc2c(c1)c(CC(=O)O)c(C)n2C(=O)c1ccc(Cl)cc1` [Indomethacin], the LC50 at 24 h in the series “in vivo” (Gammarus pulex) was > 0.93 µg/mL. The “24 h- LC50 T. platyurus” value with Thamnocephalus platyurus was 16.14 mg/L.
The molecule `Cc1ccc(Cl)c(Nc2ccccc2C(=O)O)c1Cl` [Meclofenamic acid] yielded an LC50 at 24 h in the series “in vivo” of 4.54 µg/mL (≈ 15.3 µM). For the same molecule, the Water solubility in series [1] was 30 mg/L.
With `COCCc1ccc(OCC(O)CNC(C)C)cc1` (stereo not shown) [Metoprolol tartrate], the LC50 at 24 h in the series “in vivo” (Gammarus pulex) was > 150 µg/mL.
`CNCCC=C1c2ccccc2CCc2ccccc21` [Nortriptyline] gave an LC50 at 24 h in “in vivo” of 18.9 µg/mL (≈ 71.6 µM). Also, the Water solubility in series [1] was 0.874 mg/L.
With `CNC(=C[N+](=O)[O-])NCCSCc1ccc(CN(C)C)o1` [Ranitidine], in “in vivo” (Gammarus pulex), the LC50 at 24 h was > 250 µg/mL. The Water solubility in series [1] is 1800 mg/L.
For `O=C(O)c1ccccc1O` [Salicylic acid], in “in vivo”, the LC50 at 24 h came to 29.3 µg/mL (≈ 212 µM). For the same molecule, the Water solubility in series [1] was 1800 mg/L.
As for `O=C(Nc1ccc(Cl)cc1)Nc1ccc(Cl)c(Cl)c1` [Triclocarban], the LC50 at 24 h in “in vivo” is > 10 µg/mL. In addition, in series [1] (26 °C), the Water solubility was 10 (26 ºC) mg L^-1.
For `COc1cc(Cc2cnc(N)nc2N)cc(OC)c1OC` [Trimethoprin], in the series with Gammarus pulex, the “24 h- LC50 G. pulex (present study)” value was >200 mg/L. Moreover, the Water solubility in series [1] is 400 mg/L.
For `CC(=O)CC(c1ccccc1)c1c(O)c2ccccc2oc1=O` (stereo not shown) [Warfarin], the LC50 at 24 h in “in vivo” was > 17 µg/mL.
